According to patent US5188955A, “Method of preserving arylacylamidase in aqueous solution” (GDS Technology, Inc., priority 1992, dated 1993):
“Also recorded” adds a separate entry of the source. Read-outs that look alike come from different tables or passages of the source.

Legend:
Type in all cases: biochemical
[1] = test system: arylacylamidase E.C. 3.5.1.13; assay: Stability of arylacylamidase dried on paper strips with or without o-cresol (Example 2); settings: 37° C., two weeks
Method: (§1) Arylacylamidase enzyme was dissolved in water containing 50 mM borate buffer at various pH's at widely different concentrations of between 1 and 1500 U/L in the presence of between 1 and 12 mM o-cresol. The same solution of enzyme in buffer was prepared without o-cresol. Both sets of solutions were maintained at 37° C. for a period of two weeks. The enzyme activity was measured at the beginning of the period, as well as at certain times during the two week period. The enzyme activity was determined by a method which uses 50 mM Tris.HCl, pH 8.5, and 1 mM paranitroacetanilide as the enzyme substrate. In the presence of arylacylamidase, the p.nitroacetanilide is hydrolyzed to p-nitroaniline which absorbs at 405 nm. The kinetic assay was performed at 30° C. and 405 nm. One unit of enzyme activity is defined as 1 μ mole of p.nitroaniline formed using p-nitroacetanilide as a substrate at 30° C.
Two arylacylamidase aqueous solutions of 100 U/L were prepared in water containing 50 mM borate buffer, pH 8.0, one in the presence of 10 mM o-cresol and one in the absence of o-cresol. Whatman 54 and Whatman 3MM paper strips (2"×12") were impregnated with these solutions and dried. The dried paper strips were stored at 37° C. for two weeks. […] The enzyme activity was measured using the assay described in Example 1.

[2] = test system: arylacylamidase E.C. 3.5.1.13; assay: Stability of aqueous arylacylamidase solution at 37° C. with or without o-cresol (Example 1); settings: for Remaining enzyme activity: 37° C.
Method: as §1

arylacylamidase = assay: General findings on effect of stabilizers on arylacylamidase
[3] = test system: arylacylamidase E.C. 3.5.1.13; settings: 10 mM Tris-HCl pH 7.0
Method: as §1
An aqueous solutiOn of arylacylamidase, from about 100-200 U/mL, in 10 mM Tris-HCl buffer, which was maintained at pH 7.0, was lyophilized in the presence of various amounts of sodium benzoate and in the absence of sodium benzoate. After lyophilization, the enzyme samples were dissolved in deionized water to make an aqueous enzyme solution of 100 U/mL of water, and assayed for enzyme activity using the assay described in Example 1.

[4] = test system: arylacylamidase E.C. 3.5.1.13; settings: Arylacylamidase 21.6 U/mL with 1 mg/mL sodium benzoate, 10 mM Tris-HCl pH 7.0
Method: as §1
The arylacylamidase was dissolved in an aqueous buffer, such as in 10 mM Tris-HCl, pH 7.0, in the presence of 1 mg/ml sodium benzoate and in the absence of sodium benzoate.
The samples were maintained at 4° C., room temperature, and 37° C. The residual activity was determined using the enzyme assay described in Example 1.

[5] = test system: arylacylamidase E.C. 3.5.1.13; settings: 37° C., two weeks

SMILES: Cc1ccccc1O [o-cresol]
- Residual Activity (Recovery) ([1]; Strips of Whatman 3 MM, 10 mM o-cresol): 40%
- Residual Activity (Recovery) ([1]; Strips of Whatman 54, 10 mM o-cresol): 70%
- Remaining enzyme activity ([2]; pH 8.0, 2.8 mM o-cresol, 0 HRS): 13.6 U/ML
- Remaining enzyme activity ([2]; pH 8.0, 2.8 mM o-cresol, 3 DAYS): 13.6 U/ML
- Remaining enzyme activity ([2]; pH 8.0, 2.8 mM o-cresol, 5 HRS): 13.5 U/ML
- Remaining enzyme activity ([2]; pH 8.0, 2.8 mM o-cresol, 7 DAYS): 12.3 U/ML
- Remaining enzyme activity ([2]; pH 8.0, 2.8 mM o-cresol, 14 DAYS): 11.8 U/ML
- Remaining enzyme activity ([2]; pH 8.0, 4.2 mM o-cresol, 0 HRS): 6.25 U/ML
- Remaining enzyme activity ([2]; pH 8.0, 4.2 mM o-cresol, 3 DAYS): 6.20 U/ML
- Remaining enzyme activity ([2]; pH 8.0, 4.2 mM o-cresol, 5 HRS): 6.16 U/ML
- Remaining enzyme activity ([2]; pH 8.0, 4.2 mM o-cresol, 7 DAYS): 5.66 U/ML
- Remaining enzyme activity ([2]; pH 8.0, 4.2 mM o-cresol, 14 DAYS): 5.36 U/ML
- activity of aqueous solution of arylacylamidase maintained ([2]; pH 8.0, 14 days at 37° C., 2.8 mM o-cresol): over 80%
- Remaining enzyme activity ([2]; pH 9.0, 2.2 mM o-cresol, 0 HRS): 13.6 U/ML
- Remaining enzyme activity ([2]; pH 9.0, 2.2 mM o-cresol, 3 DAYS): 11.2 U/ML
- Remaining enzyme activity ([2]; pH 9.0, 2.2 mM o-cresol, 5 HRS): 13.7 U/ML
- Remaining enzyme activity ([2]; pH 9.0, 2.2 mM o-cresol, 7 DAYS): 9.26 U/ML
- Remaining enzyme activity ([2]; pH 9.0, 2.2 mM o-cresol, 14 DAYS): 5.44 U/ML
- Remaining enzyme activity ([2]; pH 9.0, 3.75 mM o-cresol, 0 HRS): 6.15 U/ML
- Remaining enzyme activity ([2]; pH 9.0, 3.75 mM o-cresol, 3 DAYS): 5.03 U/ML
- Remaining enzyme activity ([2]; pH 9.0, 3.75 mM o-cresol, 5 HRS): 6.20 U/ML
- Remaining enzyme activity ([2]; pH 9.0, 3.75 mM o-cresol, 7 DAYS): 4.16 U/ML
- Remaining enzyme activity ([2]; pH 9.0, 3.75 mM o-cresol, 14 DAYS): 2.36 U/ML
- use as substrate / inhibition of arylacylamidase activity (arylacylamidase): neither compound is used by the enzyme as a substrate nor causes inhibition of the activity of arylacylamidase
- effect on stability of the enzyme (arylacylamidase; 10-100 mg/ml of ortho-cresol): enhances the stability of the enzyme
- effect on the enzyme (arylacylamidase; higher concentrations of ortho-cresol, on the order of about 1%): inactivate the enzyme and make it unstable
- effect on stability of arylacylamidase (arylacylamidase; o-cresol concentrations above about 0.5%): specifically destabilizes arylacylamidase; also recorded: act to destabilize the arylacylamidase enzyme

SMILES: O=C(O)c1ccccc1 [sodium benzoate]
- % Recovery After Lyophilization ([3]; 1 mM sodium benzoate): 75%
- % Recovery After Lyophilization ([3]; 5 mM sodium benzoate): 95%
- % Recovery After Lyophilization ([3]; 10 mM sodium benzoate): 104%
- Remaining Activity at 4° C. (8 days) [4]: 80%
- Remaining Activity at 37° C. (1 day) [4]: 85%
- Remaining Activity at 37° C. (4 days) [4]: 30%
- Remaining Activity at Room Temp (8 days) [4]: 71%
- Residual Activity (Recovery) ([5]; Strips of Whatman 3 MM, 10 mM sodium benzoate): 70%
- Residual Activity (Recovery) ([5]; Strips of Whatman 54, 10 mM sodium benzoate): 85%

SMILES: O=C(O)c1ccccc1 [benzoic acid]
- use as substrate / inhibition of arylacylamidase activity (arylacylamidase): neither compound is used by the enzyme as a substrate nor causes inhibition of the activity of arylacylamidase
